Laboratory results as given in patent US5750574A, “Fluorinated N-arylmethylamino derivatives of cyclobutene-3,4-diones” (American Home Products Corporation, priority 1997, dated 1998).

Key:
[1] = test system: isolated rat bladder strips (smooth muscle); experiment: Inhibition of contractions in isolated rat bladder strips; parameters: species or system Sprague-Dawley rat; details: 15 mM KCl-enhanced contractions; for inhibition at 30 µM: read-out: Percent inhibition at 30 μM (footnote a); for IC50: 0.5 h, 30 minute challenge, ± spread
Description: The smooth muscle relaxing activity of the compounds of this invention was established in accordance with standard pharmaceutically accepted test procedures with representative compounds as follows:
Sprague-Dawley rats (150-200 g) are rendered unconscious by CO2 asphyxiation and then euthanized by cervical dislocation. The bladder is removed into warm (37° C.) physiological salt solution (PSS) of the following composition (mM): NaCl, 118.4; KCl, 4.7; CaCl2, 2.5; […]; NaHCO3, 24.9; KH2 PO4, 1.2; glucose, 11.1; EDTA, 0.023; gassed with 95% O2; […]; pH 7.4 The bladder is opened and then cut into strips 1-2 mm in width and 7-10 mm in length. The strips are subsequently suspended in a 10 mL tissue bath under an initial resting tension of 1.5 g. The strips are held in place by two surgical clips one of which is attached to a fixed hook while the other is attached to an isometric force transducer. […] The carbachol is then washed out and the tissue allowed to relax to its resting level of activity. Following a further 30 min. period of recovery an additional 15 mM KCl are introduced into the tissue bath. This increase in KCl concentration results in a large increase in the amplitude of spontaneous contractions (and initiation of contractions in previously quiescent strips) superimposed upon a small increase in basal tone. Following stabilization of this enhanced level of contractile activity, incremental increases in the concentration of test compound or vehicle are introduced into the tissue bath. Contractile activity is measured for each compound or vehicle concentration during the last minute of a 30 minute challenge.
The isometric force developed by the bladder strips is measured using a […] to elicit 50% inhibition of pre-drug contractile activity (IC50 concentration) and is calculated from this concentration-response curve.

[2] = test system: hypertrophied bladder (detrussor) smooth muscle; experiment: Inhibition of spontaneous contractions in vivo, hypertrophied rat bladder model; parameters: species or system female Sprague-Dawley rat; details: 3 mg/kg p.o.; 4 animals; conscious rats
Text: In addition, we tested the ability of compounds to inhibit the hyperactivity of hypertrophied bladder (detrussor) smooth muscle in conscious female rats with hypertrophied bladders and thereby alleviate urinary incontinence in rats according to the following protocol described by Malmgren (A. Malmgren, K. E. Andersson, C. Sjogren, P. O. Andersson, Effects of pinacidil and Cromakalim (BRL 34915) on Bladder Function in Rats with Detrusor Instability, J. Urol. 142:1134, 1989.):
Female Sprague-Dawley rats, ranging in weight from 190-210 g are used. Up to 25 animals are prepared each time. After development of bladder hypertrophy 4-8 animals are used per test.
Compounds are dissolved in PEG-200 and administered by gastric gavage or intraveneously in a volume of 5 ml/kg. For primary screening all drugs are administered at the arbitrary dose of 10 mg/kg p.o. to groups of 4 rats.
The animals are anesthetized with halothane. Through a midline incision the bladder and urethra are exposed and a ligature of 4-0 silk is tied around the proximal urethra in the presence of a stainless steel rod (1 mm diameter) to produce a partial occlusion. The rod is then removed. The abdominal region is closed using surgical staples and each rat receives 150,000 units of bicillin C-R. The animals ar allowed six weeks to develop sufficient bladder hypertrophy. After six weeks, the ligature is removed under halothane anesthesia and a catheter (PE 60) with a cuff is placed in the dome of the bladder and secured with a purse string suture. The catheter is tunneled under the skin and exteriorized through an opening in the back of the neck. The abdominal incision is sutured and the free end of the catheter sealed. In order to prevent infections the rats receive an injection of bicillin C-R (150000 units/rat). Two days later the animals are used in cystometrical evaluations. The animals are placed in the metabolic cages and the catheter is attached (using a "T" connector) to a Statham pressure transducer (Model P23Db) and to a Harvard infusion pump. A plastic beaker attached to a force displacement transducer (Grass FT03) is placed under the rat's cage to collect and record urine volume. Animals are allowed 15-30 min to rest before the saline infusion (20 ml/hr for 20 minutes) is started for the first cystometry period. […]
The following urodynamic variables are recorded: […]
The mean value of each variable is calculated before and after compound administration. For each compound the changes in the variables measured are compared to the values obtained before treatment and expressed as percent inhibition. The data are also subjected to 2-way analysis of variance to determine significant (p<0.05) changes in the variable measured. […]

Row | IC50 [1] [nM] | SMILES | other results
1 |  | C[C@@H](Nc1c(NCc2cccc(OC(F)(F)F)c2)c(=O)c1=O)C(C)(C)C [Example 16, (R)-3-(3-trifluoromethoxy-benzylamino)-4-(1,2,2-trimethyl-propylamino)-cyclobut3-ene-1,2-dione] | inhibition at 30 µM [1]: 10%
2 | 7900 ± 2700 | CC(C)(C)Nc1c(NCc2cccc(C(F)(F)F)c2)c(=O)c1=O [Example 10, 3-tert-Butylamino-4-(3-trifluoromethyl-benzylamino)-cyclobut-3-ene-1,2-dione] | 
3 | 1500 ± 320 | CC(C)(C)Nc1c(NCc2ccc(F)cc2)c(=O)c1=O [Example 5, 3-tert-Butylamino-4-(4-fluoro-benzylamino)-cyclobut-3-ene-1,2-dione] | 
4 | 360 ± 140 | CCC(C)(C)Nc1c(NCc2ccc(F)cc2)c(=O)c1=O [Example 7, 3-(1,1-Dimethyl-propylamino)-4-(4-fluoro-benzylamino)-cyclobut-3-ene-1,2 dione] | % Ampl: Percent change in the amplitude of spontaneous contractions in the hypertrophied rat bladder model [2]: -3 ± 35%; % Red (F): Percent reduction in the total number of spontaneous contractions in the hypertrophied rat bladder model [2]: 67 ± 2%
5 | 6500 ± 870 | CC(C)(C)Nc1c(NCc2ccc(C(F)(F)F)cc2)c(=O)c1=O [Example 4, 3-tert-Butylamino-4-(4-trifluoromethyl-benzylamino)-cyclobut-3-ene-1,2-dione] | 
6 | 2080 ± 250 | CC(C)(C)Nc1c(NCc2ccccc2F)c(=O)c1=O [Example 9, 3-tert-Butylamino-4-(2-fluoro-benzylamino)-cyclobut-3-ene-1,2-dione] | 
7 |  | CC(C)(C)Nc1c(NCc2ccc(OC(F)(F)F)cc2)c(=O)c1=O [Example 3, 3-tert-Butylamino-4-(4-trifluoromethoxy-benzylamino)-cyclobut-3-ene-1,2-dione] | inhibition at 30 µM [1]: 16.2%
8 | 2300 ± 510 | CC(C)(C)Nc1c(NCc2ccccc2C(F)(F)F)c(=O)c1=O [Example 11, 3-tert-Butylamino-4-(2-trifluoromethyl-benzylamino)-cyclobut-3-ene-1,2-dione] | 
9 | 760 ± 460 | C[C@@H](Nc1c(NCc2ccc(F)cc2)c(=O)c1=O)C(C)(C)C [Example 1, (R)-3-(4-Fluoro-benzylamino)-4-(1,2,2-trimethyl-propylamino)-cyclobut-3-ene-1,2-dione] | % Ampl: Percent change in the amplitude of spontaneous contractions in the hypertrophied rat bladder model [2]: -64 ± 3%; % Red (F): Percent reduction in the total number of spontaneous contractions in the hypertrophied rat bladder model [2]: 3 ± 25%
10 | 6500 ± 1900 | C[C@@H](Nc1c(NCc2ccc(C(F)(F)F)cc2)c(=O)c1=O)C(C)(C)C [Example 2, (R)-3-(4-trifluoromethyl-benzylamino)-4-(1,2,2-trimethyl-propylamino)-cyclobut-3-ene-1,2-dione] | 
11 |  | C[C@@H](Nc1c(NCc2ccc(OC(F)(F)F)cc2)c(=O)c1=O)C(C)(C)C [Example 6, (R)-3-(4-trifluoromethoxy-benzylamino)-4-(1,2,2-trimethyl-propylamino)-cyclobut-3-ene-1,2-dione] | inhibition at 30 µM [1]: 20.4%
12 | 2400 ± 360 | CC(C)(C)Nc1c(NCc2cccc(F)c2)c(=O)c1=O [Example 8, 3-tert-Butylamino-4-(3-fluoro-benzylamino)-cyclobut-3-ene-1,2-dione] | 
13 |  | C[C@@H](Nc1c(NCc2cccc(C(F)(F)F)c2)c(=O)c1=O)C(C)(C)C [Example 13, (R)-3-(3-trifluoromethyl-benzylamino)-4-(1,2,2-trimethyl-propylamino) cyclobut-3-ene-1,2-dione] | inhibition at 30 µM [1]: 40.1%
14 | 20400 ± 7800 | C[C@@H](Nc1c(NCc2ccccc2C(F)(F)F)c(=O)c1=O)C(C)(C)C [Example 14, (R)-3-(2-trifluoromethyl-benzylamino)-4-(1,2,2-trimethyl-propylamino) cyclobut-3-ene-1,2-dione] | 
15 | 13600 ± 3300 | CC(C)(C)Nc1c(NCc2cccc(OC(F)(F)F)c2)c(=O)c1=O [Example 12, 3-tert-Butylamino-4-(3-trifluoromethoxy-benzylamino)-cyclobut-3-ene-1,2-dione] | 
16 | 1230 ± 220 | C[C@@H](Nc1c(NCc2ccccc2F)c(=O)c1=O)C(C)(C)C [Example 15, (R)-3-(2-fluoro-benzylamino)-4-(1,2,2-trimethyl-propylamino) cyclobut-3-ene-1,2-dione] | 
